Molecular target: T1, Relaxin-3 receptor 1 (Homo sapiens, UniProt Q9NSD7)
T1 sequence (Q9NSD7 whole entry): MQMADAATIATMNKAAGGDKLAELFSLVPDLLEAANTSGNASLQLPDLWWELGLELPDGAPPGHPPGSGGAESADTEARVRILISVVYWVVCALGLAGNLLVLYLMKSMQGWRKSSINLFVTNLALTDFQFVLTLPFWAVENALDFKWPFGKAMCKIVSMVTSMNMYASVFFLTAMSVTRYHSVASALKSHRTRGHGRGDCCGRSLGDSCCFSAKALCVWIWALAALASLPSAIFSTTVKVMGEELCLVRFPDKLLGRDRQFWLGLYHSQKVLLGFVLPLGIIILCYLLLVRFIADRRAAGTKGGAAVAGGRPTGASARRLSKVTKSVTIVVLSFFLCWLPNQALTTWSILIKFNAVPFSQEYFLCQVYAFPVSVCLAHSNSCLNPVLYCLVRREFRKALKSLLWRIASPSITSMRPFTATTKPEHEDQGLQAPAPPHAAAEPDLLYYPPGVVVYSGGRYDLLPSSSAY
Assay: Antagonist activity at human RXFP3 expressed in CHO-K1 cells assessed as forskolin-induced cAMP accumulation measured after 30 mins in presence of relaxin-3 by TR-FRET assay
Assay type: functional, cell-based

In the case of `Cc1ccc(-c2noc(-c3ccc(NC(=O)C4CC(=O)N(Cc5ccccc5F)C4)cc3)n2)cc1` (stereo unspecified), the IC50 is reported as > 10 µM.

From ChEMBL document CHEMBL5154921, “Discovery and Characterization of the First Nonpeptide Antagonists for the Relaxin-3/RXFP3 System” (J Med Chem, 2022)
